One may read the IC50 as the concentration that gives 50% inhibition. A low value points to inhibition by little substance. One may read the Ki as a dissociation constant, usually derived from enzyme kinetics or from competition with a known ligand. The low end stands for tighter binding, the high end for weaker binding.

The target in this assay is T1, Gag-Pol polyprotein [489-587,G537V,H558K,V571A] (Human immunodeficiency virus, UniProt P12497, G537V/H558K/V571A).
T1 construct: 489-587
The experiment in a line: Inhibiton Activity Assay. The method, then:
The inhibition activity against HIV-1 PR and three mutants (G48V, V82F, V82A)were done in 96 well microtiter plate and were assayed. Wells that showed 50% inhibition of the enzyme activity were selected and diluted to 10nM and screened again.

Structures are written as SMILES. Values joined by “and” are separate entries in the source; they are usually repeats but may differ in a detail not shown here. Identical values can stand only once.

For `COc1ccc(S(=O)(=O)N(CC(C)C)C[C@@H](O)[C@H](Cc2ccccc2)n2cc(COC(=O)N[C@H]3c4ccccc4C[C@H]3O)nn2)cc1` [HIV-1 PR Inhibitor, compound 6], the IC50 was 6 nM and 19 nM and 39 nM and 46 nM.
For `COc1ccc(S(=O)(=O)N(CC(C)C)C[C@@H](O)[C@H](Cc2ccccc2)n2cc(CNC(=O)c3ccc(CNC(=O)OC(C)(C)C)cc3)nn2)cc1` [HIV-1 PR Inhibitor, compound 8], the IC50 is 13 nM and 24 nM and 17 nM and 52 nM; the inhibition constant Ki is 4 nM and 13 nM and 9.7 nM and 30 nM.

Source of the values: BindingDB's records for doi:10.1002/cbic.200300724 (The Scripps Research Institute, 2003).
